Measurements as given in patent US11702404B2, “GLP-1R modulating compounds” (priority 2019, dated 2023).
Read-outs that look alike come from different tables or passages of the source.

Assays:
GLP-1R = GLP-1R (Homo sapiens, UniProt P43220); assay: GLP-1R activation: cAMP increase in CHO cells stably expressing GLP-1R; assay type: cell-based
[1] = Microsomal stability, human liver microsomes (predicted hepatic clearance); conditions: predicted from in vitro microsomal stability data
[2] = cAMP increase, CHO cells stably expressing GLP-1R, 10 point dose response, 30 minutes incubation, read-out: EC50

GLP-1R, sequence (P43220 24-463): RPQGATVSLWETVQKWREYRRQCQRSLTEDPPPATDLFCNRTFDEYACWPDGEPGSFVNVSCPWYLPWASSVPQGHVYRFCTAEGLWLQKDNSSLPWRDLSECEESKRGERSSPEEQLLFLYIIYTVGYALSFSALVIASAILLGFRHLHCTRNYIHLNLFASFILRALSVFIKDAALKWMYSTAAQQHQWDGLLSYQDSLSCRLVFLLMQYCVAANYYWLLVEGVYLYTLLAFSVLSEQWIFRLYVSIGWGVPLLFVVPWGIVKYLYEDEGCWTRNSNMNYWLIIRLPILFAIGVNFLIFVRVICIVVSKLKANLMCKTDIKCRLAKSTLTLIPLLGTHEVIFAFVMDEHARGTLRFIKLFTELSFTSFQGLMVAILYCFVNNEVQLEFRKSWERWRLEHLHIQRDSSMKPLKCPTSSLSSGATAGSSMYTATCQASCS

With `COCCn1c(Cc2ccc(-c3cccc(OCc4cc(F)c(C#N)cc4OC)n3)cc2F)nc2ccc(C(=O)O)cc21` [Example 251, 2-(4-(6-((4-cyano-5-fluoro-2-methoxybenzyl)oxy)pyridin-2-yl)-2-fluorobenzyl)-1-(2-methoxyethyl)-1H-benzo[d]imidazole-6-carboxylic acid] the EC50 (GLP-1R; [2]) was 3.13 nM and the “Predicted Hepatic Clearance (Pred. Cl.)” value [1] was <1.83 mL/min/kg.
For `N#Cc1ccc(COc2cccc(-c3cc(F)c(Cc4nc5ccc(C(=O)O)cc5n4CC45CCN(CC4)C5)cc3F)n2)c(F)c1` [Example 742], the EC50 (GLP-1R; [2]) was 54.8 nM and the “Predicted Hepatic Clearance (Pred. Cl.)” value [1] was 1.83 mL/min/kg.
In the case of `O=C(O)c1ccc2nc(Cc3cc(F)c(-c4ccc(F)c(OCc5ccc(C(F)F)cc5F)n4)cc3F)n(CC34CC(CO3)C4)c2c1` [Example 772], the EC50 (GLP-1R; [2]) is reported as 0.61 nM and the “Predicted Hepatic Clearance (Pred. Cl.)” value [1] is reported as 1.83 mL/min/kg.
For `N#CCC1(Cn2c(Cc3ccc(-c4ccc(F)c(OCc5ccc(C#N)cc5F)n4)cc3F)nc3c(F)cc(C(=O)O)cc32)CC1` [Example 165, 2-(4-(6-((4-cyano-2-fluorobenzyl)oxy)-5-fluoropyridin-2-yl)-2-fluorobenzyl)-1-((1-(cyanomethyl)cyclopropyl)methyl)-4-fluoro-1H-benzo[d]imidazole-6-carboxylic acid], the EC50 (GLP-1R; [2]) was 0.01 nM and the “Predicted Hepatic Clearance (Pred. Cl.)” value [1] was 4 mL/min/kg.
With `COCCn1c(Cc2ccc(-c3cccc(OCc4ccc(C#CC5CC5)cc4F)n3)cc2F)nc2ccc(C(=O)O)cc21` [Example 843] the EC50 (GLP-1R; [2]) was 17.2 nM and the “Predicted Hepatic Clearance (Pred. Cl.)” value [1] was 2.67 mL/min/kg.
With `COCCn1c(Cc2ccc(-c3cccc(OCc4ccc(C#N)cc4F)n3)cc2C#N)nc2ccc(C(=O)O)cc21` [Example 22, 2-(2-cyano-4-(6-((4-cyano-2-fluorobenzyl)oxy)pyridin-2-yl)benzyl)-1-(2-methoxyethyl)-1H-benzo[d]imidazole-6-carboxylic acid] the EC50 (GLP-1R; [2]) was 0.78 nM and the “Predicted Hepatic Clearance (Pred. Cl.)” value [1] was 3 mL/min/kg.
For `COCCn1c(Cc2ccc(-c3cccc(OCc4ccc(C(F)(F)F)cc4F)n3)cc2F)nc2ccc(C(=O)O)cc21` [Example 480, 2-[[2-fluoro-4-[6-[[2-fluoro-4-(trifluoromethyl)phenyl]methoxy]-2-pyridyl]phenyl]methyl]-3-(2-methoxyethyl)benzimidazole-5-carboxylic acid], the EC50 (GLP-1R; [2]) was 6.59 nM and the “Predicted Hepatic Clearance (Pred. Cl.)” value [1] was <1.83 mL/min/kg.
With `COCCn1c(Cc2ccc(-c3cccc(OCc4ccc(COC)cc4F)n3)cc2F)nc2ccc(C(=O)O)cc21` [Example 845, 2-(2-fluoro-4-(6-((2-fluoro-4-(methoxymethyl)benzyl)oxy)pyridin-2-yl)benzyl)-1-(2-methoxyethyl)-1H-benzo[d]imidazole-6-carboxylic acid] the EC50 (GLP-1R; EC50 (nM)) was 18 nM and the “Predicted Hepatic Clearance (Pred. Cl.)” value [1] was 12.3 mL/min/kg.
With `COCCn1c(Cc2ccc(-c3cccc(OCc4cccc5scnc45)n3)cc2F)nc2ccc(C(=O)O)cc21` [Example 146, 2-(4-(6-(benzo[d]thiazol-4-ylmethoxy)pyridin-2-yl)-2-fluorobenzyl)-1-(2-methoxyethyl)-1H-benzo[d]imidazole-6-carboxylic acid] the EC50 (GLP-1R; [2]) was 36.4 nM and the “Predicted Hepatic Clearance (Pred. Cl.)” value [1] was 7.33 mL/min/kg.
For `N#Cc1ccc(COc2nccc(-c3cc(F)c(Cc4nc5c(F)cc(C(=O)O)cc5n4Cc4ncco4)cc3F)n2)c(F)c1` [Example 617], the EC50 (GLP-1R; [2]) was 0.55 nM and the “Predicted Hepatic Clearance (Pred. Cl.)” value [1] was 3.67 mL/min/kg.
For `N#Cc1cc(F)c(COc2cccc(-c3cc(F)c(Cc4nc5c(F)cc(C(=O)O)cc5n4C[C@@H]4CCO4)cc3F)n2)cc1F` [Example 796], the EC50 (GLP-1R; [2]) was 0.03 nM and the “Predicted Hepatic Clearance (Pred. Cl.)” value [1] was 1.83 mL/min/kg.
For `O=C(O)c1ccc2nc(Cc3cc(F)c(-c4cccc(OCc5cnc(Cl)cc5F)n4)cc3F)n(C[C@@H]3CCO3)c2c1` [Example 851], the EC50 (GLP-1R; [2]) was 0.25 nM and the “Predicted Hepatic Clearance (Pred. Cl.)” value [1] was 2.5 mL/min/kg.
In the case of `COCCn1c(Cc2cc(F)c(-c3cccc(OCc4ccc(C#N)cn4)n3)cc2F)nc2ccc(C(=O)O)cc21` [Example 870], the EC50 (GLP-1R; [2]) is reported as 17.6 nM and the “Predicted Hepatic Clearance (Pred. Cl.)” value [1] is reported as 1.83 mL/min/kg.
In the case of `COCC1(n2c(Cc3ccc(-c4cccc(OCc5ccc(C#N)cc5F)n4)cc3F)nc3ccc(C(=O)O)cc32)CC1` [Example 377, 2-(4-(6-((4-cyano-2-fluorobenzyl)oxy)pyridin-2-yl)-2-fluorobenzyl)-1-(1-(methoxymethyl)cyclopropyl)-1H-benzo[d]imidazole-6-carboxylic acid], the EC50 (GLP-1R; [2]) is reported as 10.9 nM and the “Predicted Hepatic Clearance (Pred. Cl.)” value [1] is reported as 3.17 mL/min/kg.
For `COCCn1c(Cc2ccc(-c3cccc(OCc4ccc(CC#N)cc4)n3)cc2F)nc2ccc(C(=O)O)cc21` [Example 229, 2-(4-(6-((4-(cyanomethyl)benzyl)oxy)pyridin-2-yl)-2-fluorobenzyl)-1-(2-methoxyethyl)-1H-benzo[d]imidazole-6-carboxylic acid], the EC50 (GLP-1R; [2]) was 35.4 nM and the “Predicted Hepatic Clearance (Pred. Cl.)” value [1] was 8.67 mL/min/kg.
In the case of `N#Cc1ccc(COc2cccc(-c3cc(F)c(Cc4nc5ccc(C(=O)O)c(F)c5n4C[C@@H]4CCO4)cc3F)n2)c(F)c1` [Example 632], the EC50 (GLP-1R; [2]) is reported as 0.24 nM and the “Predicted Hepatic Clearance (Pred. Cl.)” value [1] is reported as 1.83 mL/min/kg.
With `COCCn1c(Cc2ccc(-c3cccc(OCc4ccc(C#N)cc4F)n3)cc2F)nc2cc(F)c(C(=O)O)cc21` [Example 207, 2-(4-(6-((4-cyano-2-fluorobenzyl)oxy)pyridin-2-yl)-2-fluorobenzyl)-5-fluoro-1-(2-methoxyethyl)-1H-benzo[d]imidazole-6-carboxylic acid] the EC50 (GLP-1R; [2]) was 35.2 nM and the “Predicted Hepatic Clearance (Pred. Cl.)” value [1] was 6 mL/min/kg.
With `COCCn1c(Cc2ccc(-c3cccc(OCc4ccc(C#N)cc4F)n3)cc2)nc2ccc(C(=O)O)cc21` [Example 1, 2-(4-(6-((4-Cyano-2-fluorobenzyl)oxy)pyridin-2-yl)benzyl)-1-(2-methoxyethyl)-1H-benzo[d]imidazole-6-carboxylic acid] the EC50 (GLP-1R; [2]) was 25.4 nM and the “Predicted Hepatic Clearance (Pred. Cl.)” value [1] was 3.3 mL/min/kg.
With `COCCn1c(Cc2cc(F)c(-c3cccc(OCc4ccc(C(F)(F)F)cc4F)n3)cc2F)nc2ccc(C(=O)O)cc21` [Example 557, 2-(2,5-difluoro-4-(6-((2-fluoro-4-(trifluoromethyl)benzyl)oxy)pyridin-2-yl)benzyl)-1-(2-methoxyethyl)-1H-benzo[d]imidazole-6-carboxylic acid] the EC50 (GLP-1R; [2]) was 0.47 nM and the “Predicted Hepatic Clearance (Pred. Cl.)” value [1] was 2.17 mL/min/kg.
With `N#Cc1ccc(COc2cccc(-c3cc(F)c(Cc4nc5ccc(C(=O)O)cc5n4CC4(F)COC4)cc3F)n2)c(F)c1` [Example 270, 2-(4-(6-((4-cyano-2-fluorobenzyl)oxy)pyridin-2-yl)-2,5-difluorobenzyl)-1-((3-fluorooxetan-3-yl)methyl)-1H-benzo[d]imidazole-6-carboxylic acid] the EC50 (GLP-1R; [2]) was 1.82 nM and the “Predicted Hepatic Clearance (Pred. Cl.)” value [1] was 4.5 mL/min/kg.
For `CC(C)n1c(Cc2ccc(-c3cccc(OCc4ccc(C#N)cc4F)n3)cc2F)nc2ccc(C(=O)O)cc21` [Example 347, 2-(4-(6-((4-cyano-2-fluorobenzyl)oxy)pyridin-2-yl)-2-fluorobenzyl)-1-isopropyl-1H-benzo[d]imidazole-6-carboxylic acid], the EC50 (GLP-1R; [2]) was 92.6 nM and the “Predicted Hepatic Clearance (Pred. Cl.)” value [1] was 5.5 mL/min/kg.
For `COc1cc(Cl)ccc1COc1nccc(-c2cc(F)c(Cc3nc4ccc(C(=O)O)cc4n3CC3(CF)CC3)cc2F)n1` [Example 414, 2-(4-(2-((4-chloro-2-methoxybenzyl)oxy)pyrimidin-4-yl)-2,5-difluorobenzyl)-1-((1-(fluoromethyl)cyclopropyl)methyl)-1H-benzo[d]imidazole-6-carboxylic acid], the EC50 (GLP-1R; [2]) was 0.44 nM and the “Predicted Hepatic Clearance (Pred. Cl.)” value [1] was 12 mL/min/kg.
With `N#Cc1ccc(COc2ccnc(-c3ccc(Cc4nc5ccc(C(=O)O)cc5n4C[C@@H]4CCO4)cc3F)n2)c(F)c1` [Example 777] the EC50 (GLP-1R; [2]) was 0.73 nM and the “Predicted Hepatic Clearance (Pred. Cl.)” value [1] was 4.5 mL/min/kg.
For `COC(Cn1c(Cc2ccc(-c3cccc(OCc4ccc(C#N)cc4F)n3)cc2F)nc2ccc(C(=O)O)cc21)C(=O)Nc1nccs1` (single isomer, unassigned) [Example 329, 2-(4-(6-((4-cyano-2-fluorobenzyl)oxy)pyridin-2-yl)-2-fluorobenzyl)-1-(2-methoxy-3-oxo-3-(thiazol-2-ylamino)propyl)-1H-benzo[d]imidazole-6-carboxylic acid], the EC50 (GLP-1R; [2]) was 286 nM and the “Predicted Hepatic Clearance (Pred. Cl.)” value [1] was 7.83 mL/min/kg.
In the case of `COCCn1c(Cc2ccc(-c3ncc(F)c(OCc4ccc(C#N)cc4F)n3)cc2F)nc2ccc(C(=O)O)cc21` [Example 126, 2-(4-(4-((4-cyano-2-fluorobenzyl)oxy)-5-fluoropyrimidin-2-yl)-2-fluorobenzyl)-1-(2-methoxyethyl)-1H-benzo[d]imidazole-6-carboxylic acid], the EC50 (GLP-1R; [2]) is reported as 3.7 nM and the “Predicted Hepatic Clearance (Pred. Cl.)” value [1] is reported as 4.67 mL/min/kg.
For `N#Cc1ccc(COc2cccc(-c3cc(F)c(Cc4nc5ccc(C(=O)O)cc5n4CCOCC(F)(F)F)cc3F)n2)c(F)c1` [Example 827], the EC50 (GLP-1R; [2]) was 1.97 nM and the “Predicted Hepatic Clearance (Pred. Cl.)” value [1] was 7.17 mL/min/kg.
With `N#Cc1ccc(COc2nccc(-c3ccc(Cc4nc5ccc(C(=O)O)cc5n4CC4(CF)CC4)c(F)c3)n2)c(F)c1` [Example 344, 2-(4-(2-((4-cyano-2-fluorobenzyl)oxy)pyrimidin-4-yl)-2-fluorobenzyl)-1-((1-(fluoromethyl)cyclopropyl)methyl)-1H-benzo[d]imidazole-6-carboxylic acid] the EC50 (GLP-1R; [2]) was 1.56 nM and the “Predicted Hepatic Clearance (Pred. Cl.)” value [1] was <1.83 mL/min/kg.
With `COCCn1c(C2CCc3cc(-c4cccc(OCc5ccc(C#N)cc5F)n4)ccc32)nc2ccc(C(=O)O)cc21` (centres unmarked) [Example 36, 2-(5-(6-((4-cyano-2-fluorobenzyl)oxy)pyridin-2-yl)-2,3-dihydro-1H-inden-1-yl)-1-(2-methoxyethyl)-1H-benzo[d]imidazole-carboxylic acid] the EC50 (GLP-1R; [2]) was 107 nM and the “Predicted Hepatic Clearance (Pred. Cl.)” value [1] was 4 mL/min/kg.
With `O=C(O)c1ccc2nc(Cc3c(F)cc(-c4cccc(OCc5ccc(C(F)F)cc5F)n4)cc3F)n(C[C@@H]3CCO3)c2c1` [Example 679] the EC50 (GLP-1R; [2]) was 0.06 nM and the “Predicted Hepatic Clearance (Pred. Cl.)” value [1] was 5 mL/min/kg.
In the case of `N#Cc1ccc(COc2cccc(-c3cc(F)c(Cc4nc5ccc(C(=O)O)cc5n4CCOc4ccccc4)cc3F)n2)c(F)c1` [Example 830], the EC50 (GLP-1R; [2]) is reported as 448 nM and the “Predicted Hepatic Clearance (Pred. Cl.)” value [1] is reported as 2.5 mL/min/kg.
For `N#Cc1cc(F)c(COc2cccc(-c3cc(F)c(Cc4nc5ccc(C(=O)O)cc5n4C[C@@H]4CCO4)cc3F)n2)cc1F` [Example 798], the EC50 (GLP-1R; [2]) was 0.12 nM and the “Predicted Hepatic Clearance (Pred. Cl.)” value [1] was 5.33 mL/min/kg.
